The target in assay [1] is T1, rSTING CTD (residues 155–341) (Rattus norvegicus, UniProt F1M391).
T1 construct: rSTING (residues 155–341); His tag (TEV protease-cleavable) (N); made in house; host or cells: Escherichia coli BL21 (DE3)
T1 sequence (F1M391 155-341): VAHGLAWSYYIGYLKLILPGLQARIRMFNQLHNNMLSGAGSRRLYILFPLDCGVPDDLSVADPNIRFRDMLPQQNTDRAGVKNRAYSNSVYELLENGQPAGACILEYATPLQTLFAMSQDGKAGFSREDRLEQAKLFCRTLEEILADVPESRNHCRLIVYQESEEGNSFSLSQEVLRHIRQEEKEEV
The assay can be described thus: ITC binding to rSTING-CTD.

For assay [2], the system named is hSTING haplotypes with residue 230 mutations. The assay can be described thus: IFN-β luciferase assay, residue 230 mutations in hSTING haplotypes. In kind it is cell-based, human. The conditions noted are these: 2′3′-cGAMP stimulation (Fig. 5c).
The target in assay [3] is T2, hSTING CTD (residues 155–341) (Homo sapiens, UniProt Q86WV6, G230A/H232R).
T2 construct: hSTING (residues 155–341); His tag (TEV protease-cleavable) (N); made in house; host or cells: Escherichia coli BL21 (DE3)
T2 sequence (Q86WV6 155-341 G230A/H232R): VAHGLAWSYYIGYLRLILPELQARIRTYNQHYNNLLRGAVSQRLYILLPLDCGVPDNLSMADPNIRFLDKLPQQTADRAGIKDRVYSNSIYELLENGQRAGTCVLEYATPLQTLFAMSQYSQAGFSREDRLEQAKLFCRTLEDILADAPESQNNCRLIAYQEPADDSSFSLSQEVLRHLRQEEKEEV
The assay can be described thus: ITC binding to hSTING-CTD.

The next assay deals with T3, rSTING T230I (Rattus norvegicus, UniProt F1M391, T230I).
T3 construct: rSTING (residues 155–341); His tag (TEV protease-cleavable) (N); made in house; host or cells: Escherichia coli BL21 (DE3)
T3 sequence (F1M391 155-341 T230I): T1 sequence (F1M391 155-341) with T76I
The assay is described as follows: ITC binding to rSTING T230I.

A further assay addresses T4, rSTING T230L (Rattus norvegicus, UniProt F1M391, T230L).
T4 construct: rSTING (residues 155–341); His tag (TEV protease-cleavable) (N); made in house; host or cells: Escherichia coli BL21 (DE3)
T4 sequence (F1M391 155-341 T230L): T1 sequence (F1M391 155-341) with T76L
The assay can be described thus: ITC binding to rSTING T230L.

Assay [4] concerns hSTING with A230 replaced by Ile or Leu. The assay is described as follows: ITC binding to hSTING mutants (Fig. S6). Further details: species or system human.
For another assay, the system named is hSTING G230I variant. Further details: method as in Gao et al. [35]. The conditions noted are these: ref Gao et al. [35]; cited from earlier work.

Changes are numbered by the printed parent chain. Where two headings read alike, the source gives them in different places.

By Kd is commonly meant a measure of binding affinity in units of concentration. Regarding `Nc1nc2c(ncn2[C@@H]2O[C@@H]3COP(=O)(O)O[C@H]4[C@@H](O)[C@H](n5cnc6c(N)ncnc65)O[C@@H]4COP(=O)(O)O[C@@H]2[C@@H]3O)c(=O)[nH]1` [2′3′-cGAMP, cyclic GMP-AMP with 2′5′ and 3′5′ phosphodiester linkage], in assay [1], the Kd is 120 ± 30 nM and the “binding affinity (in words)” value is given as “high binding affinities”. Besides, the “cGAMP-induced IFN-β production, differences between residue 230 mutations” value in assay [2] was “no differences”.

In the case of `Nc1nc2c(ncn2[C@@H]2O[C@@H]3COP(=O)(O)O[C@H]4[C@@H](O)[C@H](n5cnc6c(N)ncnc65)O[C@@H]4COP(=O)(O)O[C@H]3[C@H]2O)c(=O)[nH]1` [3′3′-cGAMP], the Kd in assay [1] (ITC, 25 °C, WT rSTING-CTD (T230)) was determined as 550 ± 110 nM. In addition, the “binding affinity (in words)” value in assay [1] (ITC, rSTING CTD) is “high binding affinities”.

For the compound `Cc1ccc2c(=O)c3cccc(CC(=O)O)c3oc2c1C` [DMXAA, 5,6-Dimethylxanthenone 4-acetic acid], the “binding affinity (in words)” value in assay [3] is recorded as “none or only weak affinity”; in assay [1] (ITC, rSTING CTD), “none or only weak affinity”. Moreover, the ΔH was -2.77 ± 0.09 kcal/mol in assay [1] (ITC, rSTING T230(WT)); -3.86 ± 0.10 kcal/mol on rSTING T230I (rSTING T230I); -2.31 ± 0.07 kcal/mol at rSTING T230L. Further, the ΔS in assay [1] (ITC, rSTING T230(WT)) was 11.7 cal/mol/deg; on rSTING T230I (rSTING T230I), 16.0 cal/mol/deg; on rSTING T230L, 16.6 cal/mol/deg. Moreover, the “binding affinity greater than that for WT rSTING” value at rSTING T230I (rSTING T230I vs WT rSTING) came out at 50 fold. Moreover, the “binding by ITC (in words)” value in assay [4] was “detectable binding”. Moreover, the “response of STING variant to compound” value in the assay with hSTING G230I variant is reported as “can respond”.

The record behind these values is paper PMC4680857, “Rat and human STINGs profile similarly towards anticancer/antiviral compounds” (Scientific Reports, 2015).
